According to patent US12551563B2, “ERK5 degraders as therapeutics in cancer and inflammatory diseases” (DANA-FARBER CANCER INSTITUTE, INC., priority 2019, dated 2026):

Assays:
Format in all cases: cell-based
ERK5 [1] = target: T1, ERK5 (Homo sapiens, UniProt Q13164); experiment: Western blot, rescue of compound 7-induced ERK5 degradation by pretreatment in MIA Paca-2 cells; parameters: immunoblotted with primary antibodies against ERK5 (Cell Signaling®); endogenous in cells; host or cells: MIA PaCa-2; conditions: for Rescue of ERK5 degradation induced by bispecific compound 7: then 1 μM compound 7 for 24 h (FIG. 3)
T1 sequence (Q13164 whole entry): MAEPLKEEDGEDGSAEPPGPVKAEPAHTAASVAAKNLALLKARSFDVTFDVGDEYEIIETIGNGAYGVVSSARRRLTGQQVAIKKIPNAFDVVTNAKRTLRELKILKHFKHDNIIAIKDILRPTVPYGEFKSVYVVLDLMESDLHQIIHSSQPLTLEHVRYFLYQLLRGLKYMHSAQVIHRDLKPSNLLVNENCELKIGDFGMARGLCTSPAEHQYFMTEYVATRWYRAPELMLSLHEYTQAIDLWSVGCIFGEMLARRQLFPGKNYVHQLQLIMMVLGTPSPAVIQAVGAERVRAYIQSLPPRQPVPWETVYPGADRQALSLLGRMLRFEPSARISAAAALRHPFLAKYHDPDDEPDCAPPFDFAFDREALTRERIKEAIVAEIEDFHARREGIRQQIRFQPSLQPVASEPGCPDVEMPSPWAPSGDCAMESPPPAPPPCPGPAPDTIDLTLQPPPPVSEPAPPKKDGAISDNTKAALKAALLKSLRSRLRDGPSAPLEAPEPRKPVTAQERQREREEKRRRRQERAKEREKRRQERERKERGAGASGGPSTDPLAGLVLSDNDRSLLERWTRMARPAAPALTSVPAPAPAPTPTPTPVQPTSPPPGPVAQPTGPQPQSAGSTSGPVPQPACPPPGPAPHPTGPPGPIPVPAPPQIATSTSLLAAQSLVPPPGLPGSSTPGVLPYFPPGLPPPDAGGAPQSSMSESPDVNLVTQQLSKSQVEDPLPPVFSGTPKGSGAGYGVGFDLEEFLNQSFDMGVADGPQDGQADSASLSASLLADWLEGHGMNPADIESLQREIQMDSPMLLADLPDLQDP
Description: (§1) MIA Paca-2 cells were treated with 0, 0.1, 1, or 10 μM of bispecific compounds 3-7 for 24 hours. Cells were then lysed in RIPA buffer (Sigma®) containing protease/phosphatase inhibitor cocktail (Roche®). The protein concentrations were measured by bicinchoninic acid assay (BCA) analysis (Pierce™). Equal amounts of protein were resolved by 4-12% Tris-Base gels (Invitrogen™), and then transferred to the Immuno-Blot PVDF membrane (BioRad), and immunoblotted with primary antibodies against ERK5 (Cell Signaling®) and […] (Cell Signaling®), and then immunoblotted with IRDye®800-labeled goat anti-rabbit IgG and IRDye®800-labeled goat anti-mouse IgG (LI-COR) secondary antibodies. The membranes were detected on Odyssey® CLx system.
MIA Paca-2 cells were pretreated with 10 μM XMD17-109 (the parental compound and known ERK5 inhibitor; available from, e.g., MedChemExpress, Cat. No. HY-15665, Monmouth Junction, N.J.), 10 μM DGY-05-180 (VHL ligand), 0.1 μM Bortezomib (a proteasome inhibitor; available from, e.g., Millipore Sigma, Cat. No. 179324-69-7, Burlington, Mass.), and 1 μM MLN4924 (a neddylation inhibitor; available from, e.g., MedChemExpress, Cat. No. HY-70062, Monmouth Junction, N.J.), for 2 h, and then treated with 1 μM bispecific compound 7 for 24 h. Cells were lysed and immunoblotted as described above with antibodies to ERK5 and GAPDH (Cell Signaling®).

ERK5 [2] = target: T1, ERK5; experiment: Western blot of ERK5 degradation in A375 cells; parameters: immunoblotted with primary antibodies against ERK5 (Cell Signaling®); endogenous in cells; host or cells: A375; conditions: 24 hours, at 1 and 10 μM (FIG. 2)
Description: as §1
A375 cells were treated with 0, 0.1, 1, or 10 μM of bispecific compounds 3, 4, and 7-9 for 24 hours. Cells were lysed and immunoblotted as described above with antibodies to ERK5 and β-Actin.

ERK5 [3] = target: T1, ERK5; experiment: Western blot of ERK5 degradation in MIA Paca-2 cells; parameters: immunoblotted with primary antibodies against ERK5 (Cell Signaling®); endogenous in cells; host or cells: MIA PaCa-2; conditions: 24 hours, at 1 and 10 μM (FIG. 1)
Description: as §1

ERK5 [4] = target: T1, ERK5; experiment: Western blot of ERK5 degradation in MOLT4 cells (0.1 or 1 μM); parameters: immunoblotted with primary antibodies against ERK5 (Cell Signaling®); endogenous in cells; host or cells: MOLT4; conditions: 5 hours, at 0.1 and 1 μM (FIG. 4)
Description: as §1
MOLT4 cells were treated with 0.1 or 1 μM of bispecific compounds 15-20 for 5 hours. Cells were lysed and immunoblotted as described above with antibodies to ERK5 and β-Actin.

ERK5 [5] = target: T1, ERK5; experiment: Western blot of ERK5 degradation in MOLT4 cells (dose curve); parameters: immunoblotted with primary antibodies against ERK5 (Cell Signaling®); endogenous in cells; host or cells: MOLT4; conditions: 5 hours, 0.1, 0.25, 0.5, or 1 μM (FIG. 5)
Description: as §1
(§2) MOLT4 cells were treated with 0.1, 0.25, 0.5, or 1 μM of bispecific compounds 18 and 23 for 5 hours. Cells were lysed and immunoblotted as described above with antibodies to ERK5, BRD4, and β-Actin.

BRD4 = target: T2, BRD4 (Homo sapiens, UniProt O60885); experiment: Western blot of BRD4 degradation in MOLT4 cells (dose curve); conditions: 5 hours, 0.1, 0.25, 0.5, or 1 μM (FIG. 5)
T2 construct: endogenous in cells; host or cells: MOLT4
Description: as §1, §2

## CC(C)C[C@H](NC(=O)[C@H](Cc1ccccc1)NC(=O)c1cnccn1)B(O)O [Bortezomib]
ERK5 [1]; pretreated 2 h with 0.1 μM
  Rescue of ERK5 degradation induced by bispecific compound 7: rescued the ERK5 degradation induced by bispecific compound 7

## NS(=O)(=O)OC[C@@H]1C[C@@H](n2ccc3c(N[C@H]4CCc5ccccc54)ncnc32)C[C@@H]1O [MLN4924]
ERK5 [1]; pretreated 2 h with 1 μM
  Rescue of ERK5 degradation induced by bispecific compound 7: rescued the ERK5 degradation induced by bispecific compound 7

## CCOc1cc(C(=O)N2CCC(N3CCN(C)CC3)CC2)ccc1Nc1ncc2c(n1)N(C1CCCC1)c1ccccc1C(=O)N2C [XMD17-109]
ERK5 [1]; pretreated 2 h with 10 μM
  Rescue of ERK5 degradation induced by bispecific compound 7: rescued the ERK5 degradation induced by bispecific compound 7

## Cc1ncsc1-c1ccc([C@H](C)NC(=O)[C@@H]2C[C@@H](O)CN2C(=O)[C@@H](NC(=O)CCCCCCCNC(=O)c2ccc(Nc3ncc4c(n3)N(C3CCCC3)c3ccccc3C(=O)N4C)cc2)C(C)(C)C)cc1 [compound 7, (2S,4R)-1-((S)-2-(8-(4-((11-cyclopentyl-5-methyl-6-oxo-6,11-dihydro-5H-benzo[e]pyrimido[5,4-b][1,4]diazepin-2-yl)amino)benzamido)octanamido)-3,3-dimethylbutanoyl)-4-hydroxy-N-((S)-1-(4-(4-methylthiazol-5-yl)phenyl)ethyl)pyrrolidine-2-carboxamide]
ERK5 [2]
  ERK5 degradation (Western blot): induced the degradation of ERK5
ERK5 [1]; 1 μM for 24 h after pretreatment with competitors/inhibitors (FIG. 3)
  Dependence of ERK5 degradation (mechanism): both ligand and proteasome dependent
ERK5 [3]
  ERK5 degradation (Western blot): induced the degradation of ERK5

## Cc1ncsc1-c1ccc([C@H](C)NC(=O)[C@@H]2C[C@@H](O)CN2C(=O)[C@@H](NC(=O)CCCCCN2CCN(C(=O)c3ccc(Nc4ncc5c(n4)N(C4CCCC4)c4ccccc4C(=O)N5C)cc3)CC2)C(C)(C)C)cc1 [compound 18, (2S,4R)-1-((S)-2-(6-(4-(4-((11-cyclopentyl-5-methyl-6-oxo-6,11-dihydro-5H-benzo[e]pyrimido[5,4-b][1,4]diazepin-2-yl)amino)benzoyl)piperazin-1-yl)hexanamido)-3,3-dimethylbutanoyl)-4-hydroxy-N-((S)-1-(4-(4-methylthiazol-5-yl)phenyl)ethyl)pyrrolidine-2-carboxamide]
ERK5 [4]
  ERK5 degradation (Western blot): induced the degradation of ERK5
ERK5 [5]
  ERK5 degradation (Western blot): induced the degradation of ERK5
BRD4
  BRD4 degradation (Western blot): induced the degradation of ERK5 and BRD4

## CCC(C)N1c2ccccc2C(=O)N(C)c2cnc(Cc3ccc(C(=O)N4CCN(CCCCCC(=O)N[C@H](C(=O)N5C[C@H](O)C[C@H]5C(=O)N[C@@H](C)c5ccc(-c6scnc6C)cc5)C(C)(C)C)CC4)cc3)nc21 (stereo partly drawn) [compound 23, (2S,4R)-1-((2S)-2-(6-(4-(4-((11-(sec-butyl)-5-methyl-6-oxo-6,11-dihydro-5H-benzo[e]pyrimido[5,4-b][1,4]diazepin-2-yl)methyl)benzoyl)piperazin-1-yl)hexanamido)-3,3-dimethylbutanoyl)-4-hydroxy-N-((S)-1-(4-(4-methylthiazol-5-yl)phenyl)ethyl)pyrrolidine-2-carboxamide]
ERK5 [5]
  ERK5 degradation (Western blot): induced the degradation of ERK5
